Tests used:
[1] = molecular target: T1, HLA-DR3 on VAVY cells (HLA-DRβ1-Arg74 positive) (Homo sapiens, UniProt P01903+P01911, A100K/A102G/A103R/A169T/F55Y/I96L/K41T/L162R/M171V/P40S/Q125H/Q178H/Q39Y/R42S/S66N/T106N/T262R/W38E/Y61H); assay: Tg.2098 peptide binding to VAVY cells, flow cytometry; type: cell-based; settings: 0.025 mM Ia, 7 h pre-incubation; 0.5 μM Tg.2098, 24 h; 42.7% without Ia
T1 construct: VAVY B-cell line that is homozygous for DR3 (confirmed to contain DRβ1-Arg74); host or cells: VAVY B-cell line
T1 sequence (P01903 26-254, other chains not shown): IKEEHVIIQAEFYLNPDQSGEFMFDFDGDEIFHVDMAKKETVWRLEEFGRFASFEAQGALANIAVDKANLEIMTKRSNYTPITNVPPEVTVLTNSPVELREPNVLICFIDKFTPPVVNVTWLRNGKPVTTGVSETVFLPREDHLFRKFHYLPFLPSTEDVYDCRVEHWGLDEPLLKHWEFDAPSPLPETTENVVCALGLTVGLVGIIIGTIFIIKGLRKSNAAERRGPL
Experimental: VAVY cells (European Collection of Cell Cultures) were cultured in RPMI (ATCC, Manassas, Va.) supplied with 10% FBS (Sigma-Aldrich, St. Louis, Mo.), 1% Penicillin-Streptomycin (Corning, N.Y.), 2 mM glutamine (Corning, N.Y.) and […] ciprofloxacin hydrochloride (Hospira, Lake Forest, Ill.). Cells were grown at 37° C., 5% CO2 and passaged 1-2 times a week. Cells expressing DR2 (National Development and Research Institutes, Inc) were cultured using the same conditions as VAVY cells. N-terminal biotinylated peptide Tg.2098 was used to test for binding to VAVY cells which express HLA-DR3 on their surface (HLA-DRβ1-Arg74 positive). APC Streptavidin (BD Biosciences, Franklin Lakes, N.J.) was used to detect the biotinylated peptides. A scrambled peptide of Tg.2098 (scr2098) was used as a negative control. VAVY cells were seeded at 2.5×10^6 cells/mL in a 24-well plate (BD Biosciences) and pre-incubated for 7 hours with 0.025 mM of compound Ia or 40% Captisol (Ligand Pharmaceuticals, Inc, La Jolla, Calif.) [the vehicle used to dissolve test compound in this experiment], before 0.5 μM Tg.2098 was added. After 24 h incubation, cells were stained with PE mouse anti-human HLA-DR (BD Biosciences) and APC Streptavidin to detect binding of the peptide to VAVY cells and the inhibitory effect of Compound Ia. Inhibition was analyzed by flow cytometry. As a negative control, cells expressing HLA-DR2 were pre-incubated with example Ia or 40% Captisol, before biotinylated myelin basic protein (MBP) 87-99 (known binder to HLA-DR2) was added and incubated for 24 hours. HLA-DR2 cells were stained with PE mouse anti-human HLA-DR and APC Streptavidin to detect binding of biotinylated MBP87-99 to DR2 expressing cells and to assess the inhibitory effect of compound Ia on peptide binding. To confirm the ELISA results we performed binding inhibition studies using the VAVY B-cell line that is homozygous for DR3 (confirmed to contain DRβ1-Arg74). […]

[2] = tested on: T-cell proliferative responses to hTg or Tg.2098; assay: In vivo PO administration in hTg-immunized NOD-DR3 mice (EAT), T-cell proliferation CFSE assay; design: species or system mouse; settings: PO gavage 250 μg on days -2, -1, 5, 6, sacrifice day 21
Text: Mice transgenic for DRB1*0301 were originally generated by G. J Hämmerling and co-workers as previously described [Strauss et al. Immunogenetics 40, 104-108 (1994)]. Briefly, the DR3 (DRA1*0101/DRB1*0301) transgenes were inserted into (C57BL/6×DBA/2) F1 embryos and the progeny were back-crossed to B10.Q mice. The DR3 mice were crossed with I-Aβ knockouts (C57BL/6×129) to obtain mice lacking murine MHC class II and expressing human DR3. The transgenic mouse line was maintained by intercrossing. The background non-MHC genes in the DR3 transgenic line was 50% C57BL/10 genes and 50% contribution from CBA, C57BL/6, and 129 genes. These mice were then back-crossed into NOD background to produce the NOD-DR3 mice [Flynn et al. J Autoimmun, 17, 7-15 (2001)]. The transgene was confirmed to be HLA-DRβ1-Arg74 positive. Mice were bred in a pathogen-free facility (Icahn School of Medicine at Mount Sinai, New York, N.Y.), and expression of HLA-DR3 was tested by PCR using DR3-specific primers: forward primer 5′ CGCTTCGACAGCGAC 3′ (SEQ ID NO:4) and reverse primer 5′ GACAAATCCACACTCCAC 3′ (SEQ ID NO:5). […]
Three female NOD-DR3 mice (6 to 10 weeks old) were fed with 250 μg of Compound Ia PO using gavage on day (−2) and day (−1), followed by SQ immunization of hTg mixed with CFA on day 0. […] Stimulation index was calculated as before.

binding of Tg.2098 to VAVY cells in the presence of Ia [1]: 16.6%
SMILES: COc1ccc2cc1Oc1ccc(cc1)C[C@H]1c3c(cc4c(c3Oc3cc5c(cc3OC)CCN(C)[C@@H]5C2)OCO4)CCN1C [Compound Ia, cepharanthine]
Stimulation index, T-cell stimulation in response to hTg ([2]; vehicle 1.8 ± 0.2, p=0.0285): 1.0 ± 0.2 | Stimulation index, T-cell stimulation in response to Tg.2098 ([2]; vehicle 1.9 ± 0.3, p=0.0147): 0.9 ± 0.1

— US11266642B2, “Small molecule inhibitors of HLA-DR3 binding for treating autoimmune thyroiditis” (ICAHN SCHOOL OF MEDICINE AT MOUNT SINAI, priority 2015, dated 2022)
